# Data from patent US20240384268A1, “Oligonucleotides” (Hudson Institute of Medical Research, priority 2021, published 2024).
# In the oligonucleotide strings, read from the 5' end, every base follows the letter of its sugar. An asterisk marks phosphorothioate; unmarked linkages are phosphodiester. Other units and linkages are bracketed, terminal groups are in braces. A string of capitals states the bases alone. d = 2'-deoxy (DNA); m = 2'-O-methyl
# Target: T1, human TLR9 (Homo sapiens, UniProt Q9NR96)
# T1 construct: HA; host or cells: 293XL-hTLR9-HA (HEK293)
# T1 sequence (Q9NR96 26-1032): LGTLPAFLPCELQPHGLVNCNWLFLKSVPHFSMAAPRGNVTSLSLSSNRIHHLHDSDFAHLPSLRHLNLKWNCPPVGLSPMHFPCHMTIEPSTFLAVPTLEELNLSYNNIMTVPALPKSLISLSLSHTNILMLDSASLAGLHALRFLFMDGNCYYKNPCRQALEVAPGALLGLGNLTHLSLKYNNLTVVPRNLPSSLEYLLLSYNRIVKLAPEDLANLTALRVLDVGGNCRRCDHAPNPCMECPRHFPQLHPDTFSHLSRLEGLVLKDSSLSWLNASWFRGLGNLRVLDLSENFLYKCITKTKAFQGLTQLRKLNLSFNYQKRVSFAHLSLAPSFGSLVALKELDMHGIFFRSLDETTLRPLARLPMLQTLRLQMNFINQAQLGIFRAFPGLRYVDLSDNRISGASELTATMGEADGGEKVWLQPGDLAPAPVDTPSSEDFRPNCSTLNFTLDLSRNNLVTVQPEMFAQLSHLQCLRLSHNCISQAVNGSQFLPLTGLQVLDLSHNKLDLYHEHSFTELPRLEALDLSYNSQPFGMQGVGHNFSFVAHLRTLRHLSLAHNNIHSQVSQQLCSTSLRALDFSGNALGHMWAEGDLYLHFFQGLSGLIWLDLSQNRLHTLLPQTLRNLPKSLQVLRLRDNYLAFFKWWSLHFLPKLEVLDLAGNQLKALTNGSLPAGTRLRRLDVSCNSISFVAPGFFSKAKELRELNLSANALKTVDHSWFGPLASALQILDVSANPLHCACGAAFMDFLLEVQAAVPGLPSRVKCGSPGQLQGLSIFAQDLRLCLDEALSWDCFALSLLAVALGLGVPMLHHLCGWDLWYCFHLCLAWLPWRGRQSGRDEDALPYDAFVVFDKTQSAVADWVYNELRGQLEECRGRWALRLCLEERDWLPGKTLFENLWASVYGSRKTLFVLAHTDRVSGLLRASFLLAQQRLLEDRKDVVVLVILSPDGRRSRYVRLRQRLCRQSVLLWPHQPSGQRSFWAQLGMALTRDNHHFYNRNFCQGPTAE
# Assay: HEK-TLR9 NF-κB-luciferase reporter, ODN2006 stimulation
# Format: cell-based
# Conditions: for TLR9 100 nM (averaged NF-κB-Luciferase level relative to ODN2006 condition): ASO 100 nM; for TLR9 100 nM (averaged NF-κB-Luciferase level relative to ODN2006 condition) / TLR9 500 nM (averaged NF-κB-Luciferase level relative to ODN2006 condition): relative to ODN2006 only, given as fraction; for TLR9 500 nM (averaged NF-κB-Luciferase level relative to ODN2006 condition): ASO 500 nM; for TLR9-500 nM: averaged NF-κB-Luciferase relative to ODN2006: 500 nM ASO 45 min, then 200 nM ODN2006 overnight, percentage of ODN2006 only
Substance,TLR9 100 nM (averaged NF-κB-Luciferase level relative to ODN2006 condition),TLR9 500 nM (averaged NF-κB-Luciferase level relative to ODN2006 condition),TLR9-500 nM: averaged NF-κB-Luciferase relative to ODN2006 (HEK-TLR9) [%],"inhibition of TLR9 sensing of ODN2006 (in words) (HEK-TLR9, 500 nM 2′OMe or PS oligos, 200 nM ODN2006)"
"TACTTTCCGAGGTGTC (antisense; LNA-modified, pattern not given here) [CAMSAP1-1739 LNA KL]",0.915,0.356,–,–
"CCACTTGGCAGACCAT (antisense; LNA-modified, pattern not given here) [CTNN2B-1575 LNA V1]",1.112,0.111,–,–
mA*mG*mU*mC*mU*C*C*A*T*G*T*C*C*C*A*mG*mG*mC*mC*mU (mA*mG*mU*mC*mU*dC*dC*dA*dT*dG*dT*dC*dC*dC*dA*mG*mG*mC*mC*mU; antisense) [[CDKN2B-AS1]2232],–,–,122.20,–
mA*mA*mA*mG*mC*A*G*T*C*T*C*C*A*T*G*mU*mC*mC*mC*mA (mA*mA*mA*mG*mC*dA*dG*dT*dC*dT*dC*dC*dA*dT*dG*mU*mC*mC*mC*mA; antisense) [[CDKN2B-AS1]2237],–,–,87.17,–
"TGACAAAGATTCACTG (antisense; LNA-modified, pattern not given here) [HPRT LNA-1353 KL]",0.819,0.574,–,–
"mG*mC*mA*mG*mU*C*T*C*C*A*T*G*T*C*C*mC*mA*mG*mG*mC (GCAGUCTCCATGTCCCAGGC; antisense; sugars from the 5' end m5 d10 m5, all phosphorothioate, methylation of C not given here) [[CDKN2B-AS1]2234]",–,–,90.04,did not inhibit TLR9
"GAGGTCTTGGCTTCGT (antisense; LNA-modified, pattern not given here) [MB21D1-525 LNA V1]",0.897,0.224,–,–
"TGCTCCTCGGTCTCCC (antisense; LNA-modified, pattern not given here) [CAMSAP1-1850 LNA V1]",0.548,0.535,–,–
"GTGATGGCCTCCCATC (antisense; LNA-modified, pattern not given here) [HPRT LNA-333 V1]",0.890,0.694,–,–
"CCTCCCATCTCCTTCA (antisense; LNA-modified, pattern not given here) [HPRT LNA-326 V1]",1.010,0.727,–,–
"GGTCTTGGCTTCGTGG (antisense; LNA-modified, pattern not given here) [MB21D1-523 LNA V1]",0.658,0.417,–,–
"GGAGGTCTTGGCTTCG (antisense; LNA-modified, pattern not given here) [MB21D1-526 LNA V1]",0.912,0.674,–,–
"CTTGGCTTCGTGGAGC (antisense; LNA-modified, pattern not given here) [MB21D1-520 LNA V1]",0.596,0.371,–,–
"TGGTGGCCACCCATCT (antisense; LNA-modified, pattern not given here) [CTNN2B-2479 LNA V1]",1.136,1.117,–,–
"AGATTTCAGAGCAGCT (antisense; LNA-modified, pattern not given here) [EGFR-4885 LNA KL]",0.848,0.438,–,–
"CATCCACCACGTCGTC (antisense; LNA-modified, pattern not given here) [EGFR-3266 LNA V1]",0.722,0.620,–,–
"ATCTGGCAGCCCATCA (antisense; LNA-modified, pattern not given here) [CTNN2B-2516 LNA V1]",1.248,0.603,–,–

Substance,TLR9 100 nM (averaged NF-κB-Luciferase level relative to ODN2006 condition),TLR9 500 nM (averaged NF-κB-Luciferase level relative to ODN2006 condition),TLR9-500 nM: averaged NF-κB-Luciferase relative to ODN2006 (HEK-TLR9) [%],"inhibition of TLR9 sensing of ODN2006 (in words) (HEK-TLR9, 500 nM 2′OMe or PS oligos, 200 nM ODN2006)"
"GCACACTTCGTACCCA (antisense; LNA-modified, pattern not given here) [CAMSAP1-4915 LNA V1]",0.683,0.147,–,–
"ATGTGATGGCCTCCCA (antisense; LNA-modified, pattern not given here) [HPRT LNA-335 V1]",0.776,0.451,–,–
"mA*mU*mU*mU*mC*C*A*C*A*T*G*C*C*C*A*mG*mU*mG*mU*mU (AUUUCCACATGCCCAGUGUU; antisense; sugars from the 5' end m5 d10 m5, all phosphorothioate, methylation of C not given here) [[CDKN2B-AS1]626]",–,–,63.65,–
"GTCTTCATCGGCCCTG (antisense; LNA-modified, pattern not given here) [CAMSAP1-2113 LNA V1]",0.797,0.617,–,–
"TCGTGGGGTCCTTTTC (antisense; LNA-modified, pattern not given here) [HPRT LNA-660 V1]",0.461,0.462,–,–
mG*mU*mC*mU*mC*C*A*T*G*T*C*C*C*A*G*mG*mC*mC*mU*mC (mG*mU*mC*mU*mC*dC*dA*dT*dG*dT*dC*dC*dC*dA*dG*mG*mC*mC*mU*mC) [[CDKN2B;AS1]2231],–,–,77.80,–
"TGTCTGGAAGCTTCCT (antisense; LNA-modified, pattern not given here) [CTNN2B-808 LNA V1]",1.320,0.648,–,–
"GGCTCGGCTTGCCTAC (antisense; LNA-modified, pattern not given here) [CAMSAP1-5594 LNA V1]",0.714,0.350,–,–
"ACTTCGTGGGGTCCTT (antisense; LNA-modified, pattern not given here) [HPRT LNA-663 V1]",0.377,0.377,–,–
"CCAGCAGGTCAGCAAA (antisense; LNA-modified, pattern not given here) [HPRT LNA-388 KL]",0.736,0.149,–,–
mC*mA*mG*mU*mG*T*T*T*T*T*A*A*T*T*T*mU*mG*mU*mA*mG (mC*mA*mG*mU*mG*dT*dT*dT*dT*dT*dA*dA*dT*dT*dT*mU*mG*mU*mA*mG; antisense) [[CDKN2B-AS1]613],–,–,92.59,–
"ATGGCCTCCCATCTCC (antisense; LNA-modified, pattern not given here) [HPRT LNA-330 V1]",0.511,0.244,–,–
"TGGTCCACAACCCCTT (antisense; LNA-modified, pattern not given here) [MB21D1-697 LNA V1]",1.018,0.587,–,–
"GTGATCTTGACATGCT (antisense; LNA-modified, pattern not given here) [EGFR-2790 LNA KL]",1.001,0.181,–,–
"GTCTCTGGAGCTTCCT (antisense; LNA-modified, pattern not given here) [CAMSAP1-2456 LNA V1]",0.935,0.272,–,–
"TTCAGGCGCTGCCTTG (antisense; LNA-modified, pattern not given here) [CAMSAP1-2709 LNA V1]",1.202,0.494,–,–
